Source: US8003655B2, “Substituted sulphoximines as TIE2 inhibitors and salts thereof, pharmaceutical compositions comprising same, methods of preparing same and uses of same” (Bayer Schering Pharma AG, priority 2006, dated 2011)

Tests used:
[1] = biological target: T1, Tie2 (Homo sapiens, UniProt Q02763); assay: Tie2-Kinase HTRF-Assay without kinase preactivation (assay 2); assay type: biochemical; conditions: 10 μM ATP, pIC50 = −log IC50 in molar concentration, read-out: Tie 2 activity (assay 2)
T1 construct: A recombinant fusion protein of GST and the intracellular domains of Tie2; GST; made in house; host or cells: insect cells (Hi-5)
T1 sequence (Q02763 770-1124 limits assumed): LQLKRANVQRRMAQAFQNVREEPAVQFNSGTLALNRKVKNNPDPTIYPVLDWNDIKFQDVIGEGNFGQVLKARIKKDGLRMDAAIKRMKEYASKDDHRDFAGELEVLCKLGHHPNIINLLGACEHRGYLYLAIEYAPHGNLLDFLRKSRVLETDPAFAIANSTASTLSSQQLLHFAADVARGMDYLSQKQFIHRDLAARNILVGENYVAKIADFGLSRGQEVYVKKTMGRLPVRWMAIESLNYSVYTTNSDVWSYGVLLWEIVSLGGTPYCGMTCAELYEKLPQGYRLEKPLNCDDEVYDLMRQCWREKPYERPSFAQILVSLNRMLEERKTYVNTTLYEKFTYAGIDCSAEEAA
Excerpt: Tie2-inhibitory activity of compounds of the present invention was quantified employing two Tie2 HTRF assay as described in the following paragraphs.
A recombinant fusion protein of GST and the intracellular domains of Tie2, expressed in insect cells (Hi-5) and purified by Glutathion-Sepharose affinity chromatography was used as kinase. Alternatively, commercially available GST-Tie2-fusion protein (Upstate Biotechnology, Dundee, Scotland) can be used as substrate for the kinase reaction the biotinylated peptide biotin-Ahx-EPKDDAYPLYSDFG (C-terminus in amid form) was used which can be purchased e.g. from the company Biosynthan GmbH (Berlin-Buch, Germany). Detection of phosphorylated product is achieved specifically by a trimeric detection complex consisting of the phosphorylated substrate, streptavidin-XLent (SA-XLent) which binds to biotin, and Europium Cryptate-labeled anti-phosphotyrosine antibody PT66 which binds to phosphorylated tyrosine.
Tie2 (3.5 ng/measurement point) was incubated for 60 min at 22° C. in the presence of 10 μM adenosine-tri-phosphate (ATP) and 1 μM substrate peptide (biotin-Ahx-EPKDDAYPLYSDFG-NH2) with different concentrations of test compounds (0 μM and concentrations in the range 0.001-20 μM) in 5 μl assay buffer [50 mM Hepes/NaOH pH 7, 10 mM MgCl2, 0.5 mM MnCl2, 1.0 mM dithiothreitol, 0.01% NP40, protease inhibitor mixture (“Complete w/o EDTA” from Roche, 1 tablet per 2.5 ml), 1% (v/v) dimethylsulfoxide]. The reaction was stopped by the addition of 5 μl of an aqueous buffer (25 mM Hepes/NaOH pH 7.5, 0.28% (w/v) bovine serum albumin) containing EDTA (90 mM) and the HTRF (Homogeneous Time Resolved Fluorescence) detection reagents streptavidine-XLent (0.2 μM, from Cis Biointernational, Marcoule, France) and PT66-Eu-Chelate (0.3 ng/μl; a europium-chelate labelled anti-phospho-tyrosine antibody from Perkin Elmer).
The resulting mixture was incubated 1 h at 22° C. to allow the binding of the biotinylated phosphorylated peptide to the streptavidine-XLent and the PT66-Eu-Chelate. Subsequently the amount of phosphorylated substrate peptide was evaluated by measurement of the resonance energy transfer from the PT66-Eu-Chelate to the streptavidine-XLent. Therefore, the fluorescence emissions at 620 nm and 665 nm after excitation at 350 nm was measured in a HTRF reader, e.g. a Rubystar (BMG Labtechnologies, Offenburg, Germany) or a Viewlux (Perkin-Elmer). The ratio of the emissions at 665 nm and at […] was taken as the measure for the amount of phosphorylated substrate peptide. The data were normalised (enzyme reaction without inhibitor=0% inhibition, all other assay components but no enzyme=100% inhibition) and IC50 values were calculated by a 4 parameter fit using an inhouse software.

[2] = biological target: T2, CDK2/CycE (Homo sapiens, UniProt P24941); assay: CDK2 HTRF Assay (assay 4); assay type: biochemical; conditions: 10 μM ATP, pIC50 = −log IC50 in molar concentration
T2 construct: GST; purchased ProQinase GmbH (Freiburg, Germany); host or cells: insect cells (Sf9)
Excerpt: CDK2/CycE-inhibitory activity of compounds of the present invention was quantified employing the CDK2/CycE HTRF assay as described in the following paragraphs.
Recombinant fusion proteins of GST and human CDK2 and of GST and human CycE, expressed in insect cells (Sf9) and purified by Glutathion-Sepharose affinity chromatography, were purchase from ProQinase GmbH (Freiburg, Germany). As substrate for the kinase reaction biotinylated peptide biotin-Ttds-YISPLKSPYKISEG (C-terminus in amid form) was used which can be purchased e.g. form the company JERINI peptide technologies (Berlin, Germany).
CDK2/CycE was incubated for 60 min at 22° C. in the presence of different concentrations of test compounds in 5 μl assay buffer [50 mM Tris/HCl pH 8.0, 10 mM MgCl2, 1.0 mM dithiothreitol, 0.1 mM sodium ortho-vanadate, 10 μM adenosine-tri-phosphate (ATP), 0.75 μM substrate, 0.01% (v/v) Nonidet-P40 (Sigma), 1% (v/v) dimethylsulfoxide]. The concentration of CDK2/CycE was adjusted depending of the activity of the enzyme lot and was chosen appropriate to have the assay in the linear range, typical concentrations were in the range of 1 ng/ml. The reaction was stopped by the addition of 5 μl of a solution of HTRF detection reagents (0.2 μM streptavidine-XLent and 3.4 nM Phospho-(Ser) CDKs Substrate Antibody [product #2324B, Cell Signalling Technology, Danvers, Mass., USA} and 4 nM Prot-A-EuK [Protein A labeled with Europium Cryptate from Cis biointernational, France, product no. 61PRAKLB]) in an aqueous EDTA-solution (100 mM EDTA, 800 mM KF, 0.2% (w/v) bovine serum albumin in 100 mM HEPES/NaOH pH 7.0).

SMILES | IC50 [1] | IC50 [2]
CCOC(=O)N=S(C)(=O)c1ccc(Nc2ncc(-c3ccc(NC(=O)C4(c5ccccc5)CC4)cc3)c(N[C@H](C)CO)n2)cc1 (mixture of isomers) [Example 1, N-{4-[2-({4-[(RS)-N-(Ethoxycarbonyl)-S-methylsulfonimidoyl]phenyl}amino)-4-{[(R)-2-hydroxy-1-methylethyl]amino}-pyrimidin-5-yl]phenyl}-1-phenylcyclopropanecarboxamide] | 0.1 to 1 µM | > 10 µM
CCOC(=O)N=S(C)(=O)c1ccc(Nc2ncc(-c3ccc(NC(=O)Nc4ccccc4)cc3)c(N[C@H](C)CO)n2)cc1 (mixture of isomers) [Example 6, 1-{4-[2-({4-[(RS)-N-(Ethoxycarbonyl)-S-methylsulfonimidoyl]phenyl}amino)-4-{[(R)-2-hydroxy-1-methylethyl]amino}-pyrimidin-5-yl]-phenyl}-3-[phenyl]urea] | 0.1 to 1 µM | > 10 µM
CS(=N)(=O)c1cccc(Nc2ncc(-c3ccc(NC(=O)Nc4cc(C(F)(F)F)ccc4F)c(F)c3)c(NCCc3ccccc3)n2)c1 (racemic) [Example 48, 1-[2-Fluoro-4-(2-{[3-(RS)-(S-methylsulfonimidoyl)phenyl]amino}-4-[(2-phenylethyl)amino]-pyrimidin-5-yl)phenyl]-3-[2-fluoro-5-(trifluoromethyl)-phenyl]urea] | 0.1 to 1 µM | > 10 µM
C[C@H](CO)Nc1nc(Nc2ccc(S(C)(=N)=O)cc2)ncc1-c1ccc(NS(=O)(=O)c2cccc(Cl)c2Cl)cc1 (mixture of isomers) [Example 24] | 0.1 to 1 µM | > 10 µM
CCOC(=O)N=S(C)(=O)c1cccc(Nc2ncc(-c3ccc(NC(=O)Nc4cccc(C(F)(F)F)c4)cc3)c(N[C@H](C)CO)n2)c1 (mixture of isomers) [Example 10, 1-{4-[2-({3-[(RS)-N-(Ethoxycarbonyl)-S-methylsulfonimidoyl]phenyl}amino)-4-{[(R)-2-hydroxy-1-methylethyl]amino}-pyrimidin-5-yl]-phenyl}-3-[3-(trifluoromethyl)-phenyl]urea] | 0.1 to 1 µM | > 10 µM

Now from value to compound:

IC50 [1] | IC50 [2] | SMILES
< 0.1 µM | > 10 µM | C[C@H](CO)Nc1nc(Nc2cccc(S(C)(=N)=O)c2)ncc1-c1ccc(NC(=O)Nc2cccc(C(F)(F)F)c2)cc1 (mixture of isomers) [Example 39, 1-[4-(4-{[(R)-2-Hydroxy-1-methylethyl]amino}-2-{[3-(RS)-(S-methylsulfonimidoyl)phenyl]amino}-pyrimidin-5-yl)phenyl]-3-[3-(trifluoromethyl)-phenyl]urea]
0.1 to 1 µM | > 10 µM | CC(C)NC(=O)N=S(C)(=O)c1cccc(Nc2ncc(-c3ccc(NC(=O)Nc4cccc(C(F)(F)F)c4)cc3)c(N[C@H](C)CO)n2)c1 (mixture of isomers) [Example 14, 1-{4-[4-{[(R)-2-hydroxy-1-methylethyl]amino}-2-({3-[(RS)-N-(isopropylcarbamoyl) -S-methylsulfonimidoyl]phenyl}amino)-pyrimidin-5-yl]phenyl}-3-[3-(trifluoromethyl)-phenyl]urea]
< 0.1 µM | > 10 µM | CCOC(=O)N=S(C)(=O)c1cccc(Nc2ncc(-c3ccc(NC(=O)Nc4cc(C(F)(F)F)ccc4F)c(F)c3)c(NCCN3CCOCC3)n2)c1 (racemic) [Example 29, 1-{4-[2-({3-[(RS)-N-(Ethoxycarbonyl)-S-methylsulfonimidoyl]phenyl}amino)-4-{[2-(morpholin-4-yl)ethyl]amino}pyri-midin-5-yl]-2-fluorophenyl}-3-[2-fluoro-5-(trifluoromethyl)-phenyl]urea]
< 0.1 µM | > 10 µM | CSc1nc(Nc2cccc(S(C)(=N)=O)c2)ncc1-c1ccc(NC(=O)Nc2cc(C(F)(F)F)ccc2F)c(F)c1 (racemic) [Example 44, 1-{2-Fluoro-4-[2-{[3-(RS)-(S-methylsulfonimidoyl)phenyl]amino}-4-(methylthio)-pyrimidin-5-yl]phenyl}-3-[2-fluoro-5-(trifluoromethyl)-phenyl]urea]
